Assay results taken from patent publication US20190070266A1 (Novo Nordisk A/S, priority 2016, published 2019).

System: adult human subjects with type 2 diabetes at high risk for cardiovascular events
Test: Same trial: adverse events by preferred term with frequency of at least 0.1%
Type: in vivo
Conditions: full analysis set
Description: A long-term, multi-centre, international, randomised double-blind, placebo-controlled trial with 9340 human subjects was carried out with treatment for at least 3.5 years and up to 5 years per subject; and this trial concerned the incidence of cardiovascular events in adult human subjects with type 2 diabetes that were at high risk for cardiovascular events, including such subjects with existing cardiovascular disease. […] All trial endpoints were collected and assessed throughout the entire duration of the trial. Subject inclusion and exclusion criteria were as described in Table 2. The subject's characteristics, cardiovascular risk profile, renal function, cardiovascular medication, and antidiabetic treatment regimens of the randomised subjects at baseline were as shown in Tables 3a-e. Overall trial duration was planned as 18 months of recruitment period followed by 42 months of treatment from last subject randomised. […] After randomisation, treatment with liraglutide or placebo was double-blind throughout the trial. […] The term “placebo” as used herein refers to a formulation identical to the liraglutide formulation except not comprising liraglutide and the placebo was administered in the volume used in the equivalent liraglutide dosage. […] The dosage could be reduced at any time in the trial if required by the subject's tolerance to the trial product. […] The subcutaneous injection was made either in the abdomen, thigh or upper arm.
The term “baseline” herein (e.g. used as part of “baseline characteristics” or “baseline cardiovascular risk profile”) may refer to the level of a certain parameter (e.g. level of HbA1c) by the determination made in connection with the medical visit at the time of randomisation of the subject.
The results of this trial may be presented herein as a number or fraction of subjects experiencing an event. Alternatively, the results of this trial may be presented with hazard ratios estimated in a Cox proportional hazard model, which is the standard statistical model used for estimating time to an event. […] A 5% significance level is the standard level for investigating significance in clinical trials.

[1] = Preferred term: Diabetic foot infection

## CCCCCCCCCCCCCCCC(=O)N[C@@H](CCC(=O)NCCCC[C@H](NC(=O)[C@H](C)NC(=O)[C@H](C)NC(=O)[C@H](CCC(N)=O)NC(=O)CNC(=O)[C@H](CCC(=O)O)NC(=O)[C@H](CC(C)C)NC(=O)[C@H](Cc1ccc(O)cc1)NC(=O)[C@H](CO)NC(=O)[C@H](CO)NC(=O)[C@@H](NC(=O)[C@H](CC(=O)O)NC(=O)[C@H](CO)NC(=O)[C@@H](NC(=O)[C@H](Cc1ccccc1)NC(=O)[C@@H](NC(=O)CNC(=O)[C@H](CCC(=O)O)NC(=O)[C@H](C)NC(=O)[C@@H](N)Cc1cnc[nH]1)[C@@H](C)O)[C@@H](C)O)C(C)C)C(=O)N[C@@H](CCC(=O)O)C(=O)N[C@@H](Cc1ccccc1)C(=O)N[C@H](C(=O)N[C@@H](C)C(=O)N[C@@H](Cc1c[nH]c2ccccc12)C(=O)N[C@@H](CC(C)C)C(=O)N[C@H](C(=O)N[C@@H](CCCNC(=N)N)C(=O)NCC(=O)N[C@@H](CCCNC(=N)N)C(=O)NCC(=O)O)C(C)C)[C@@H](C)CC)C(=O)O [Liraglutide, Arg34,Lys26-(N-epsilon-(gamma-L-glutamyl(N-alfa-hexadecanoyl)))-GLP-1(7-37)]
[1]
  Adverse events by preferred term, % (proportion of subjects experiencing at least one event): 0.3%
  Adverse events by preferred term, R (rate, events per 100 PYO): <0.1 events per 100 PYO
Preferred term: Diabetic foot
  Adverse events by preferred term, % (proportion of subjects experiencing at least one event): 2.8%
  Adverse events by preferred term, R (rate, events per 100 PYO): 1.0 events per 100 PYO
Preferred term: Gangrene
  Adverse events by preferred term, % (proportion of subjects experiencing at least one event): 0.2%
  Adverse events by preferred term, R (rate, events per 100 PYO): <0.1 events per 100 PYO
Preferred term: Skin ulcer
  Adverse events by preferred term, % (proportion of subjects experiencing at least one event): 0.6%
  Adverse events by preferred term, R (rate, events per 100 PYO): 0.2 events per 100 PYO
